Key:
[1] = biological target: T1, His-tagged BRD4 BD2 (333-460) (Homo sapiens, UniProt O60885); test: AlphaLISA competition assay, BRD4 BD2; assay type: binding; conditions: BRD4-BD2, AlphaLISA competition with biotinylated histone H4K5/8/12/16(Ac) peptide, 20 nM
T1 construct: The same assay was developed for His-tagged BRD4 BD2 (333-460) and biotinylated histone H4K5/8/12/16(Ac) peptide
Description: (§1) Exemplary compounds were tested for ability to bind to bromodomain-containing protein 4 (BRD4).
(§2) Compounds were tested using a developed AlphaLISA competition assay. Briefly, His-tagged BRD4 BD1 (46-168) and biotinylated histone H4K5/8/12/16(Ac) peptide (ANASPEC, AS-64989-1) were incubated in 20 mM HEPES pH 7.5, 100 mM NaCl, 0.5 mM TCEP, 0.1% BSA, 0.02% CHAPS at a final concentration of 10 nM. Test compounds were serially diluted ten times in the same buffer and were added to the BRD4-peptide mixture for 1 h incubation at room temperature. Following incubation, Streptavidin AlphaLISA acceptor beads (PerkinElmer, AL125M) were added to BRD4-peptide-compound samples to a final concentration of 0.01 mg/mL for a 0.5 h incubation at room temperature in the dark. Following incubation, the same amount of Nickel Chelate Alpha donor beads (PerkinElmer, AS101M) were added to the samples for a final 1 h incubation. The AlphaLISA signals were measured using an EnVision plate reader (PerkinElmer). The data were uploaded to Screening Ultra (Dotmatics) to determine the half-maximal inhibitory concentration (IC50) for each test compound.
The same assay was developed for His-tagged BRD4 BD2 (333-460) and biotinylated histone H4K5/8/12/16(Ac) peptide at a final concentration of 20 nM.

[2] = biological target: T2, biotinylated BCL6 (5-129) (Homo sapiens, UniProt P41182); test: SPR assay for binding affinity to BCL6; conditions: Biacore 8K, 25° C., immobilized biotinylated BCL6 (5-129)
T2 construct: biotinylated BCL6 (5-129) was diluted in 10 mM HEPES pH 7.4; biotin (biotinylated)
Description: Exemplary compounds were tested for ability to bind to B-cell lymphoma 6 (BCL6) protein.
Binding studies by surface plasmon resonance (SPR) were performed using a Biacore 8K (Cytiva) instrument at 25° C. Briefly, biotinylated BCL6 (5-129) was diluted in 10 mM HEPES pH 7.4, 150 mM NaCl, 0.05% Surfactant P20, 0.5 mM TCEP, 3% DMSO to 1-5 μg/mL and was immobilized on an SA sensor chip (Cytiva, BR100032), resulting in surface densities at 1000-3000 resonance units (RUs). Test compounds were serially diluted five times in the same buffer and were injected to the immobilized surface. Kinetic determination experiments were performed using single-cycle kinetics with 110-120 s contact time, 1000-4000 s dissociation time, 30 μL/min flow rate. Binding data were analyzed by using Biacore insight evaluation software to determine KD values for test compounds.

[3] = biological target: T3, His-tagged BRD4 BD1 (46-168) (Homo sapiens, UniProt O60885); test: AlphaLISA competition assay, BRD4 BD1; assay type: binding; conditions: BRD4-BD1, AlphaLISA competition with biotinylated histone H4K5/8/12/16(Ac) peptide, 10 nM
T3 construct: His-tagged BRD4 BD1 (46-168) and biotinylated histone H4K5/8/12/16(Ac) peptide
Description: as §1, §2

Su-DHL-4 cell line = test: Cellular growth inhibition assay, Su-DHL-4 cells (CellTiter-Glo); assay type: cell-based; conditions: Homo sapiens; Su-DHL-4 cell line (DLBCL), 72 hours, CellTiter-Glo 2.0
Description: (§3) Exemplary compounds were tested for ability to inhibit the proliferation of Su-DHL-4 and Farage cells. Su-DHL-4 and Farage cells are commercially available diffuse large B cell lymphoma cell lines (DLBCL).
(§4) Su-DHL-4 and Farage cells were purchased from American Type Cell Culture (ATCC Cat #CRL-2957/CRL-2630) and then seeded on poly-D-lysine coated, black clear-bottom 384-well plates at 3000/well in 25 μL Roswell Park Memorial Institute media (RPMI-1640) supplemented with 10% w/w Fetal bovine serum (FBS) and 1% w/w Pen-Strep. Pen-Strep is a commercially available mixture of penicillin G and streptomycin, which is used in mammalian cell culture media to prevent bacterial contamination. Roswell Park Memorial Institute media (RPMI-1640) supplemented with 10% w/w fetal bovine serum (FBS), and 1% w/w Pen-Strep is herein referred to as Treatment Medium. Following seeding of cells in the plates, the plates were spun at 300×g for 30 seconds, then equilibrated to room temperature for 30 minutes, and then deposited in a humidified tissue culture incubator maintained at 37° C. with 5% CO2.
(§5) At 24 hours after seeding of the cells, dilutions of test compound were prepared in DMSO and dissolved in Treatment Medium, to achieve a final DMSO concentration of 0.5% w/w, thereby providing the Test Compound Solution. A 25 μL aliquot of the Test Compound Solution was added to cells in the well plates. An equal volume of a solution containing DMSO and Treatment Medium was used as a negative control. Following treatment of cells with Test Compound Solution or said equal volume of a solution containing DMSO and Treatment Medium, the plates were spun at 300×g for 30 seconds, and then left in an incubator for 72 hours.
(§6) At the end of the treatment duration, cell viability was quantified with CellTiter-Glo 2.0 reagent (Promega Cat #G9243). For this purpose, plates were equilibrated to room temperature for 30 minutes, and then 25 μL of CellTiter-Glo 2.0 reagent was added to cells in the plate wells. Plates were then agitated on a shaker for two minutes at 500 rpm and subsequently incubated at room temperature for 10 minutes. Following incubation, the plates were spun at 3000×g for 30 seconds, then sealed with an optical adhesive cover, and luminescence readings were measured with an EnVision Plate Reader (Perkin Elmer).
(§7) Data was normalized using zero luminescence for baseline. A four-parameter non-linear regression curve fit was applied to dose-response data in GraphPad Prism data analysis software to determine the half-maximal growth inhibitory concentration (GI50) for each test compound.

[4] = system: T-Rex 293 cell line SC cells having increased expression of BCL6 protein; test: Cellular growth inhibition assay, T-Rex 293 SC cells with doxycycline (CellTiter-Glo); assay type: cell-based; conditions: T-Rex 293 SC cells with 10 ng/mL doxycycline (increased BCL6 expression), 72 hours, CellTiter-Glo 2.0
Description: (§8) Exemplary compounds were tested for ability to inhibit the proliferation of the following types of cells: (i) a T-Rex 293 cell line having increased expression of BCL6 protein due to exposure of doxycycline and (ii) a T-Rex 293 cell line lacking increased expression of BCL6 protein.
(§9) The following types of cells were prepared for this experiment: (i) a T-Rex 293 cell line having increased expression of BCL6 protein due to exposure to doxycycline and (ii) a T-Rex 293 cell line lacking increased expression of BCL6 protein. Ability of the test compounds to inhibit proliferation of the foregoing cell types was evaluated according to the procedures set forth below.
(§10) The doxycycline-inducible BCL6 protein expressing cell line was established using the following protocol: T-Rex 293 cells were purchased from Invitrogen (Cat #R71007) and transfected using Lipofectamine 2000 with the wild-type BCL6 protein sequence cloned into the pcDNA4/TO vector. Transfected cells were selected using 400 μg/mL Zeocin (Invitrogen Cat #R25001). Following selection, single clones were raised and maintained in Dulbecco's Modified Eagle Medium (DMEM) supplemented with 10% w/w Tetracycline-free fetal bovine serum (FBS) and 250 μg/mL Zeocin. Clones were analyzed for expression of BCL6 protein in the presence and absence of 10 ng/mL doxycycline (Sigma Cat #D9891), and a single doxycycline-inducible clone (hereinafter “SC”) was selected for use in downstream assays.
(§11) The SC cells were seeded on poly-D-lysine coated, black clear-bottom 384-well plates at 2500/well, in 25 μL Dulbecco's Modified Eagle Medium (DMEM) supplemented with 10% w/w Tetracycline-free fetal bovine serum (FBS) and 1% w/w pen-strep, with or without 10 ng/mL doxycycline. Pen-Strep is a commercially available mixture of penicillin G and streptomycin, which is used in mammalian cell culture media to prevent bacterial contamination. Dulbecco's Modified Eagle Medium (DMEM) supplemented with 10% w/w Tetracycline-free fetal bovine serum (FBS) and 1% w/w pen-strep, with or without 10 ng/mL doxycycline is herein referred to as Treatment Medium. Following seeding of cells in the plates, the plates were spun at 300×g for 30 seconds, then equilibrated to room temperature for 30 minutes, and then deposited in a humidified tissue culture incubator maintained at 37° C. with 5% CO2.
as §5, §6, §7

Farage cell line = test: Cellular growth inhibition assay, Farage cells (CellTiter-Glo); assay type: cell-based; conditions: Farage cell line (DLBCL), 72 hours, CellTiter-Glo 2.0
Description: as §3, §4, §5, §6, §7

[5] = system: T-Rex 293 cell line SC cells lacking increased expression of BCL6 protein; test: Cellular growth inhibition assay, T-Rex 293 SC cells without doxycycline (CellTiter-Glo); assay type: cell-based; conditions: T-Rex 293 SC cells not exposed to doxycycline (no increased BCL6 expression), 72 hours, CellTiter-Glo 2.0
Description: as §8, §9, §10, §11, §5, §6, §7

Compound | IC50 [1] [nM] | Kd [2] [nM] | IC50 [3] [nM] | GI50 (Su-DHL-4 cell line) [nM] | GI50 [4] [nM] | GI50 (Farage cell line) [nM] | GI50 [5] [nM]
CCS(=O)(=O)Nc1ccc(Oc2cccc(OCCN3CCN(CCN4CCN(c5ncc(Cl)c(Nc6ccc7c(c6)cc(OCC(=O)NC)c(=O)n7C)n5)CC4)CC3)c2)c(-c2cn(C)c(=O)c3[nH]ccc23)c1 [Compound I-15] | < 5 | 1 to 10 | < 5 | < 500 | < 500 | < 500 | 500 to 1500
CNC(=O)COc1cc2cc(Nc3nc(N4CCN(CCN(C)C5CC(Oc6ccc(C(C)(C)O)cc6-c6cn(C)c(=O)c7[nH]ccc67)C5)CC4)ncc3Cl)ccc2n(C)c1=O (stereo not shown) [Compound I-18, 2-[[6-[[5-chloro-2-[4-[2-[[3-[4-(1-hydroxy-1-methyl-ethyl)-2-(6-methyl-7-oxo-1H-pyrrolo[2,3-c]pyridin-4-yl)phenoxy]cyclobutyl]-methyl-amino]ethyl]piperazin-1-yl]pyrimidin-4-yl]amino]-1-methyl-2-oxo-3-quinolyl]oxy]-N-methyl-acetamide] | < 5 | 1 to 10 | 5 to 50 | < 500 | < 500 | < 500 | 500 to 1500
CNC(=O)COc1cc2cc(Nc3nc(N4CCC(CCCN5CCN(CCN(C)[C@H]6C[C@H](Oc7ccc(C(C)(C)O)cc7-c7cn(C)c(=O)c8[nH]ccc78)C6)CC5)CC4)ncc3Cl)ccc2n(C)c1=O [Compound I-19] | < 5 | 1 to 10 | 5 to 50 | < 500 | < 500 | < 500 | 1500 to 3000
CNC(=O)COc1cc2cc(Nc3nc(N4CCC(CN5CCN(CCN(C)[C@H]6C[C@H](Oc7ccc(C(C)(C)O)cc7-c7cn(C)c(=O)c8[nH]ccc78)C6)CC5)CC4)ncc3Cl)ccc2n(C)c1=O [Compound I-20] | < 5 | 1 to 10 | 5 to 50 | < 500 | < 500 | < 500 | 500 to 1500
CNC(=O)COc1cc2cc(Nc3nc(N4CCC(CCN5CCN(CCN(C)[C@H]6C[C@H](Oc7ccc(C(C)(C)O)cc7-c7cn(C)c(=O)c8[nH]ccc78)C6)CC5)CC4)ncc3Cl)ccc2n(C)c1=O [Compound I-21] | < 5 | 1 to 10 | < 5 | < 500 | < 500 | < 500 | 1500 to 3000
CNC(=O)COc1cc2cc(Nc3nc(N4CCC(CC5CN(CC6CC(Oc7ccc(C(C)(C)O)cc7-c7cn(C)c(=O)c8[nH]ccc78)C6)C5)CC4)ncc3Cl)ccc2n(C)c1=O (stereo not shown) [Compound I-22, 2-[[6-[[5-chloro-2-[4-[[1-[[3-[4-(1-hydroxy-1-methyl-ethyl)-2-(6-methyl-7-oxo-1H-pyrrolo[2,3-c]pyridin-4-yl)phenoxy]cyclobutyl]methyl]azetidin-3-yl]methyl]-1-piperidyl]pyrimidin-4-yl]amino]-1-methyl-2-oxo-3-quinolyl]oxy]-N-methyl-acetamide] | < 5 | 1 to 10 | < 5 | < 500 | < 500 | < 500 | < 500
CNC(=O)COc1cc2cc(Nc3nc(N4CCN(CCN5CCN(CCOc6cccc(Oc7ccc(C(C)(C)O)cc7-c7cn(C)c(=O)c8[nH]ccc78)c6)CC5)CC4)ncc3Cl)ccc2n(C)c1=O [Compound I-23, 2-[[6-[[5-chloro-2-[4-[2-[4-[2-[3-[4-(1-hydroxy-1-methyl-ethyl)-2-(6-methyl-7-oxo-1H-pyrrolo[2,3-c]pyridin-4-yl)phenoxy]phenoxy]ethyl]piperazin-1-yl]ethyl]piperazin-1-yl]pyrimidin-4-yl]amino]-1-methyl-2-oxo-3-quinolyl]oxy]-N-methyl-acetamide] | < 5 | 1 to 10 | < 5 | < 500 | < 500 | < 500 | 500 to 1500
CNC(=O)COc1cc2cc(Nc3nc(N4CCC(CN5CC(Oc6ccc(C7=N[C@@H](Cc8ncco8)c8nnc(C)n8-c8sc(C)c(C)c87)cc6)C5)CC4)ncc3Cl)ccc2n(C)c1=O [Compound I-26] | < 5 | 10 to 100 | < 5 | < 500 | < 500 |  | < 500
